Tested on: hypertensive subjects
Test: Seated automated office blood pressure (AOBP) in randomized, placebo-controlled, dose-ranging study
Format: in vivo, human
Conditions: Part 1, 50 mg QD
Description: A randomized, double-blinded, placebo-controlled, dose-ranging, multicenter study was conducted to evaluate the effect of orally administered Compound A HBr on blood pressure for the treatment of hypertension in male and female subjects ≥18 years of age.
The study consists of two parts. For enrollment into Part 1 of the study, a subject's value of plasma renin activity (PRA) must be ≤1 ng/mL/h based on morning measurement. If the value of PRA >1 ng/mL/h based on morning measurement, then subjects may be eligible to enter Part 2 of the study.
For Part 1, 163 enrolled subjects ≥18 years of age were randomized into 6 equal treatment groups (1:1:1:1:1:1) to 12.5 mg BID, 25 mg BID, 12.5 mg QD, 50 mg QD, 100 mg QD, or placebo. After a review of interim clinical data, the 2 lowest dose levels (12.5 mg QD and 12.5 mg BID) were stopped for future randomization due to a lack of consistent meaningful reduction of blood pressure, but the patients randomized to that point remained in the study through completion. Thus, after the review of interim clinical data, subjects were randomized into 4 equal treatment groups (1:1:1:1) to 25 mg BID, 50 mg QD, 100 mg QD, or placebo.
For Part 2, 36 enrolled subjects ≥18 years of age were randomized (5:1) to either 100 mg QD Compound A HBr or placebo such that the Compound A HBr treatment group consisted of approximately 30 subjects and the placebo treatment group will consist of approximately 6 subjects.
Subjects orally administered the assigned study drug (Compound A HBr or placebo) according to the assigned dosing regimen for 8 weeks beginning on Study Day 1. All subjects in Part 1 (regardless of dosing group) received BID dosing to preserve the integrity of the blind; active drug is administered as the morning dose for all QD dose groups. Subjects returned to the research facility or were seen by the clinical investigator or approved home health care professional at the end of Study Weeks 1, 2, 3, 4, 5, 6, 7, and 8 (±2 days) for protocol-defined efficacy and safety assessments and procedures, assessment of adverse events (AEs), and confirmation of compliance with study drug usage. Subjects also completed a telephone visit and blood pressure (BP) check at home approximately 3 days post last dose of study drug. Subjects attended up to 14 full clinic visits, including a pre-Screening visit, a Screening/start of Placebo Run-in visit, a second visit during Placebo Run-in, a clinic visit to initiate the ABPM procedure, a Randomization visit, 8 weekly visits during double-blind treatment, and an end-of-study visit scheduled 4 weeks after the last study treatment for final efficacy and safety assessments.
An automated oscillometric sphygmomanometer device was used to measure the subjects' systolic and diastolic blood pressure in office after approximately 5 minutes of rest in the seated position.
The primary endpoint is the change in office-measured (mean of last 2 of 5 unattended measurements using an automated oscillometric sphygmomanometer device after approximately 5 minutes of rest in the seated position) systolic blood pressure (SBP) from baseline to the end of Study Week 8.
Secondary endpoints of this study were: • (a) Change in 24-hour ambulatory blood pressure monitoring (ABPM) parameters (systolic and diastolic) from baseline to the end of Study Week 7. • (b) Change in office-measured SBP from baseline to the end of Study Weeks 1, 2, 3, 4, 5, 6, and 7. • (c) Change in office-measured diastolic blood pressure (DBP) from baseline to the end of Study Weeks 1, 2, 3, 4, 5, 6, 7, and 8. • (d) Proportion of subjects who achieve office-measured BP of ≤130/80 mm Hg by the end of Study Week 8.

CC(=O)N[C@H]1CC[C@H](NC(=O)CN2CCN(c3nncc(-c4ccc(C)cc4)n3)CC2)CC1 [Compound A HBr]
Mean (SD) Change from Baseline at Week 8 in Automated Office-Measured Systolic Blood Pressure (ACEi/ARB Yes): −15.75 (17.46) mmHg | Mean (SD) Automated Office-Measured Diastolic Blood Pressure at Wk 8 (ACEi/ARBs No): 78.75 (13.72) mmHg | Mean (SD) Change from Baseline at Week 8 in Automated Office-Measured Diastolic Blood Pressure (ACEi/ARBs No): −4.44 (10.67) mmHg | Mean (SD) Automated Office-Measured Diastolic Blood Pressure at Wk 8 (ACEi/ARBs Yes): 76.05 (8.09) mmHg | Mean (SD) Change from Baseline at Week 8 in Automated Office-Measured Diastolic Blood Pressure (ACEi/ARBs Yes): −9.50 (8.30) mmHg | Mean (SD) Automated Office-Measured Diastolic Blood Pressure at Wk 8 (AHTs 2): 76.40 (10.12) mmHg | Mean (SD) Automated Office-Measured Systolic Blood Pressure at Wk 8 (AHTs 2): 129.60 (13.98) mmHg | Mean (SD) Change from Baseline at Week 8 in Automated Office-Measured Diastolic Blood Pressure (AHTs 2): −7.03 (9.50) mmHg | Mean (SD) Change from Baseline at Week 8 in Automated Office-Measured Systolic Blood Pressure (AHTs 2): −10.28 (15.34) mmHg | Mean (SD) Automated Office-Measured Diastolic Blood Pressure at Wk 8 (AHTs ≥3): 77.88 (9.58) mmHg | Mean (SD) Automated Office-Measured Systolic Blood Pressure at Wk 8 (AHTs ≥3): 126.25 (13.56) mmHg | Mean (SD) Change from Baseline at Week 8 in Automated Office-Measured Diastolic Blood Pressure (AHTs ≥3): −10.63 (8.12) mmHg | Mean (SD) Change from Baseline at Week 8 in Automated Office-Measured Systolic Blood Pressure (AHTs ≥3): −20.44 (20.36) mmHg | Mean (SD) Automated Office-Measured Diastolic Blood Pressure at Wk 8 (Age 65-79 yr): 72.54 (8.04) mmHg | Mean (SD) Automated Office-Measured Systolic Blood Pressure at Wk 8 (Age 65-79 yr): 127.92 (13.82) mmHg | Mean (SD) Change from Baseline at Week 8 in Automated Office-Measured Diastolic Blood Pressure (Age 65-79 yr): −8.88 (9.23) mmHg | Mean (SD) Change from Baseline at Week 8 in Automated Office-Measured Systolic Blood Pressure (Age 65-79 yr): −15.15 (18.27) mmHg | Mean (SD) Automated Office-Measured Diastolic Blood Pressure at Wk 8 (Age <65 yr): 80.53 (9.93) mmHg | Mean (SD) Automated Office-Measured Systolic Blood Pressure at Wk 8 (Age <65 yr): 129.27 (14.04) mmHg | Mean (SD) Change from Baseline at Week 8 in Automated Office-Measured Diastolic Blood Pressure (Age <65 yr): −7.33 (9.30) mmHg | Mean (SD) Change from Baseline at Week 8 in Automated Office-Measured Systolic Blood Pressure (Age <65 yr): −11.47 (16.60) mmHg | Mean (SD) Automated Office-Measured Diastolic Blood Pressure at Wk 8 (BMI 25−30 kg/m^2): 80.27 (6.29) mmHg | Mean (SD) Change from Baseline at Week 8 in Automated Office-Measured Diastolic Blood Pressure (BMI 25−30 kg/m^2): −4.50 (8.75) mmHg | Mean (SD) Automated Office-Measured Diastolic Blood Pressure at Wk 8 (BMI <25 kg/m^2): 61.00 (NE) mmHg | Mean (SD) Change from Baseline at Week 8 in Automated Office-Measured Diastolic Blood Pressure (BMI <25 kg/m^2): −24.50 (NE) mmHg | Mean (SD) Automated Office-Measured Diastolic Blood Pressure at Wk 8 (BMI >30 kg/m^2): 76.07 (11.02) mmHg | Mean (SD) Change from Baseline at Week 8 in Automated Office-Measured Diastolic Blood Pressure (BMI >30 kg/m^2): −9.67 (8.59) mmHg | Mean (SD) Automated Office-Measured Systolic Blood Pressure at Wk 8 (BMI at baseline 25-30 kg/m^2): 136.64 (14.70) mmHg | Mean (SD) Change from Baseline at Week 8 in Automated Office-Measured Systolic Blood Pressure (BMI at baseline 25-30 kg/m^2): −2.45 (15.21) mmHg | Mean (SD) Automated Office-Measured Systolic Blood Pressure at Wk 8 (BMI at baseline <25 kg/m^2): 118.00 (NE) mmHg | Mean (SD) Change from Baseline at Week 8 in Automated Office-Measured Systolic Blood Pressure (BMI at baseline <25 kg/m^2): −38.00 (NE) mmHg | Mean (SD) Automated Office-Measured Systolic Blood Pressure at Wk 8 (BMI at baseline >30 kg/m^2): 124.13 (10.98) mmHg | Mean (SD) Change from Baseline at Week 8 in Automated Office-Measured Systolic Blood Pressure (BMI at baseline >30 kg/m^2): −19.27 (15.13) mmHg | Mean (SD) Automated Office-Measured Diastolic Blood Pressure at Wk 8 (Race Black or AA): 83.25 (8.88) mmHg | Mean (SD) Automated Office-Measured Systolic Blood Pressure at Wk 8 (Race Black or AA): 130.38 (14.12) mmHg | Mean (SD) Change from Baseline at Week 8 in Automated Office-Measured Diastolic Blood Pressure (Race Black or AA): −4.88 (8.84) mmHg | Mean (SD) Change from Baseline at Week 8 in Automated Office-Measured Systolic Blood Pressure (Race Black or AA): −12.31 (18.13) mmHg | Mean (SD) Automated Office-Measured Diastolic Blood Pressure at Wk 8 (Race Other): 74.25 (9.14) mmHg | Mean (SD) Automated Office-Measured Systolic Blood Pressure at Wk 8 (Race Other): 127.95 (13.83) mmHg | Mean (SD) Change from Baseline at Week 8 in Automated Office-Measured Diastolic Blood Pressure (Race Other): −9.33 (9.15) mmHg | Mean (SD) Change from Baseline at Week 8 in Automated Office-Measured Systolic Blood Pressure (Race Other): −13.53 (17.25) mmHg | Mean (SD) Automated Office-Measured Diastolic Blood Pressure at Wk 8 (Seated SBP Tertile High): 73.25 (8.33) mmHg | Mean (SD) Change from Baseline at Week 8 in Automated Office-Measured Diastolic Blood Pressure (Seated SBP Tertile High): −13.94 (7.82) mmHg | Mean (SD) Automated Office-Measured Diastolic Blood Pressure at Wk 8 (Seated SBP Tertile Low): 81.08 (9.65) mmHg | Mean (SD) Change from Baseline at Week 8 in Automated Office-Measured Diastolic Blood Pressure (Seated SBP Tertile Low): 2.42 (8.22) mmHg | Mean (SD) Automated Office-Measured Diastolic Blood Pressure at Wk 8 (Seated SBP Tertile Middle): 74.00 (10.06) mmHg

From patent publication US20260053811A1, “METHODS OF TREATING HYPERTENSION IN OBESE SUBJECTS” (Mineralys Therapeutics, Inc., priority 2022, published 2026)
